Consider 83 compounds from the Bradley open melting point set (2014).

Where “and” joins values, the source holds several entries; their conditions need not be identical. Equal values may be shown once.

In turn, `CC/C=C\CC` [cis-3-hexene] came in with a melting point of -138 °C.
Next, `CCOC(=O)/C(C#N)=C\c1ccc(-c2ccccc2OC)o1` [Ethyl (2Z)-2-cyano-3-[5-(2-methoxyphenyl)-2-furyl]acrylate]: 121 °C; `C[C@]12CC[C@@H]3O[C@@H]3[C@H]1CC[C@@H]1[C@@H]2CC[C@]2(C)C(=O)CC[C@@H]12` [(3beta,4beta,5beta)-3,4-Epoxyandrostan-17-one]: 136 °C; `Clc1ccc(C(c2ccc(Cl)cc2)C(Cl)(Cl)Cl)cc1` [1,1'-(2,2,2-Trichloroethane-1,1-diyl)bis(4-chlorobenzene)]: 108 °C.
As for `CCOC(=O)c1ccc(O)cc1` [Ethyl 4-hydroxybenzoate], the figure is 117 °C.
Next, `CCCCCCC` [Heptane]: -91 °C; `NC(=O)c1cccnc1` [Nicotinamide]: 130 °C; `CSc1ccc(C(=O)c2[nH]c(=O)[nH]c2C)cc1` [Enoximone]: 256 °C.
For the compound `C(=C/C#N)C#N` [fumaronitrile], the melting point worked out at 97 °C.
In the case of `CC(=O)C(C)=O` [Biacetyl], the melting point was -3 °C.
As for `O=C(O)C(F)(F)C(F)(F)C(F)(F)C(F)(F)C(F)(F)C(F)(F)F` [Tridecafluoroheptanoic acid], the figure is 30 °C; as for `CCOc1ccc(NC(C)=O)cc1` [N-(4-Ethoxyphenyl)acetamide], 134 °C.
Next, `O=C(CCBr)N1CCN(C(=O)CCBr)CC1` [pipobroman]: 106 °C; `NC(=O)c1ccc(CO)cc1` [p-hydroxymethyl_benzamide]: 135 °C; `COc1ccc2c(=O)cc(-c3ccccc3)oc2c1` [7-methoxyflavone]: 110 °C.
With `N#Cc1cc([N+](=O)[O-])ccc1F` [2-fluoro-5-nitrobenzonitrile], the melting point is 71 °C.
Next, `CCI` [iodoethane]: -108 °C; `NC(CN(Cc1ccccc1)c1ccccc1)=NO` [Cetoxime]: 107 °C.
On to `Nc1ccccc1Oc1ccccc1` [2-phenoxyaniline], for which the melting point was determined as 47 °C.
As for `OCc1ccc(-c2ccccc2)cc1` [4-biphenylmethanol], the figure is 46 °C; as for `O=C(O)c1ccccc1C(=O)c1ccccc1` [2-benzoylbenzoic acid], 129 °C.
Next, `O=C2\C(=C(/N(N2c1ccccc1)C)C)N(C)C` [aminopyrine]: 108 °C; `CC(=O)Oc1ccc(-c2ccc(OC(C)=O)cc2)cc1` [4,4'-diacetoxybiphenyl]: 164 °C; `Cc1ccc(-c2ccc(C)cc2)cc1` [4,4'-dimethylbiphenyl]: 121 °C.
Next, `Cc1cccc(C)c1` [m-xylene]: -47 °C.
`CC(=O)C1=CCC2(C)C(CCC3C4CCC(=O)C4(C)CCC32)C1` (stereo not drawn) [3-acetylandrost-2-en-17-one] had a melting point of 153 °C.
As for `OB(O)c1cccc(Oc2ccccc2)c1` [3-phenoxybenzeneboronic acid], the figure is 141 °C.
As for `COCC(=O)O` [methoxyacetic acid], the figure is 8 °C.
As for `CNc1ccccc1` [N-methylaniline], the figure is -57 °C.
`O=C1COc2cccnc2N1` [2h-pyrido[3,2-b]-1,4-oxazin-3(4h)-one] displayed a melting point of 206 °C.
On to `CCC1CO1` (stereo not drawn) [1,2-butene oxide], for which the melting point was -130 °C and -129 °C.
`CCCCSCCCC` [di-n-butyl sulfide] had a melting point of -80 °C.
Next, `Cc1ccccc1C1C=C(c2ccccc2)N=N1` (stereo not drawn) [5-(2-methylphenyl)-3-phenyl-1H-pyrazole]: 108 °C; `CCNCC` [diethylamine]: -50 °C.
As for `COC1=C(OC)C(=O)C(C/C=C(\C)CC/C=C(\C)CC/C=C(\C)CC/C=C(\C)CC/C=C(\C)CC/C=C(\C)CC/C=C(\C)CC/C=C(\C)CC/C=C(\C)CCC=C(C)C)=C(C)C1=O`, the figure is 49 °C; as for `Clc1cc(-c2cc(Cl)c(Cl)c(Cl)c2Cl)c(Cl)c(Cl)c1Cl` [PCB-194], 157 °C.
Next, `CCCCCCCCCCCCCCCCCC(=O)O` [stearic acid]: 71 °C; `O=C1Nc2ccccc2C1=O` [Isatin]: 203 °C; `CC(C)Br` [2-bromopropane]: -89 °C.
Consider `Nc1ccc(Cl)cc1[N+](=O)[O-]` [4-chloro-2-nitroaniline], for which the melting point was found to be 118 °C.
Compound `O=c1c(-c2ccc(O)cc2)coc2cc(O)cc(O)c12` [Genistein] displayed a melting point of 302 °C.
Regarding `O=C(O)CC[C@H](NC(=O)OCc1ccccc1)C(=O)O` [N-benzyloxycarbonyl-l-glutamic acid], the melting point came to 119 °C.
As for `C#C[C@]1(O)CC[C@H]2[C@@H]3CCC4=CC(=O)CC[C@@H]4[C@H]3CC[C@@]21C` [norethindrone], the figure is 204 °C.
As for `COc1ccc2c(c1)[nH]c1c(C)nccc12` [harmine], the figure is 264 °C; as for `O=[N+]([O-])c1ccc(F)cc1` [1-fluoro-4-nitrobenzene], 23 °C; as for `Oc1cccc(Cl)c1` [3-chlorophenol], 32.5 °C.
As for `CC(=O)Nc1cccc(O)c1` [3-acetamidophenol], the figure is 148 °C.
`O=[N+]([O-])c1c(Cl)c(Cl)cc(Cl)c1Cl` [2,3,5,6-Tetrachloronitrobenzene] returned a melting point of 99.5 °C.
Next, `O=Cc1cccc(B(O)O)c1` [3-formylbenzeneboronic acid]: 111 °C; `O/N=C(\Cc1ccccc1)c1ccc2ccccc2c1` [(1E)-N-hydroxy-1-(naphthalen-2-yl)-2-phenylethanimine]: 129 °C; `Cc1ccc(S(=O)(=O)NC2CCCCC2)cc1` [N-Cyclohexyl-4-methylbenzenesulfonamide]: 84.5 °C.
As for `COc1ccc(B(O)O)c(C(F)(F)F)c1` [4-methoxy-2-(trifluoromethyl)benzeneboronic acid], the figure is 170 °C; as for `CN(C)c1ccc(CNC2=CC(=O)c3ccccc3C2=O)cc1` [2-{[4-(dimethylamino)benzyl]amino}naphthalene-1,4-dione], 166 °C; as for `C=C(CC)C(=O)c1ccc(OCC(=O)O)c(Cl)c1Cl` [Ethacrynic acid], 122 °C.
As for `Cc1ccc(N2C(=O)C=CC2=O)cc1Cl` [1-(3-Chloro-4-methylphenyl)-1H-pyrrole-2,5-dione], the figure is 140 °C.
On to `Brc1ccc(Br)cc1` [1,4-dibromobenzene], for which the melting point was 87.3 °C and 87 °C and 88 °C.
Next, `C=CCOc1ccc(CC(=O)O)cc1Cl` [Epinal]: 92 °C; `O=C1OC(c2ccccc2)=NC1=Cc1ccc(-c2ccccc2)o1` [2-Phenyl-4-(5-phenyl-furan-2-ylmethylene)-4H-oxazol-5-one]: 143 °C.
As for `Cc1ccc(-c2csc(/C(C#N)=N/Nc3cccc(C)c3)n2)cc1`, the figure is 133 °C; as for `CS(C)(=O)=O` [dimethyl sulfone], 110 °C; as for `FC(F)(F)c1ccc2cccnc2c1` [7-(trifluoromethyl)quinoline], 66 °C.
The compound `CCCCOc1ccc(-c2nnc3sc(/C=C/c4ccccc4)nn23)cc1` displayed a melting point of 80 °C.
As for `CC1CCCCN1` (stereo not drawn) [2-methylpiperidine], the figure is -4 °C; as for `CCCC1(O)CCC2C3CCC4CC(OC(C)=O)CCC4(C)C3CCC21C` (stereo not drawn), 121 °C.
As for `CN(C)c1ccc(/N=N/c2ccc(N=C=S)cc2)cc1` [4-dimethylaminoazobenzene-4'-isothiocyanate], the figure is 170 °C; as for `O=C1CCCc2cc3c(c(-c4ccccc4)c21)-c1cc(Cl)ccc1OC3`, 185 °C; as for `CC(C)(C)c1cnc(C(=O)Nc2cccc(Br)c2)cn1` [N-(3-bromophenyl)-5-tert-butylpyrazine-2-carboxamide], 114 °C.
Next, `O=[N+]([O-])c1ccc(O)c2ccccc12` [4-nitro-1-naphthol]: 166 °C.
With `CCCCCCCCBr` [1-bromooctane], the melting point was -55 °C.
As for `Cc1ccc([N+](=O)[O-])cc1C` [1,2-Dimethyl-4-nitrobenzene], the figure is 30.5 °C; as for `O=C(O)COc1cccc(Cl)c1` [3-chlorophenoxyacetic acid], 108 °C.
As for `ClCc1cccc(CCl)c1` [a,a'-dichloro-m-xylene], the figure is 36 °C; as for `O=[N+]([O-])c1ccc(NS(=O)(=O)c2ccccc2)cc1` [4-nitro-1-phenylsulfonamidobenzene], 138 °C; as for `ClC5(Cl)[C@]3(Cl)C(\Cl)=C(\Cl)[C@@]5(Cl)[C@H]4[C@H]1C[C@H]([C@@H]2O[C@H]12)[C@@H]34` [dieldrin], 175 °C.
Next, `O=C(O)c1ccc([N+](=O)[O-])cc1Cl` [2-chloro-4-nitrobenzoic acid]: 142 °C.
`OCc1ccnc(Br)c1` [2-bromo-4-pyridinemethanol] gave a melting point of 61 °C.
As for `CCC1(CC)C(=O)NC(=O)N(C)C1=O` [metharbital], the figure is 150 °C.
Next, `COc1ccccc1OC` [o-dimethoxybenzene]: 15 °C; `O=C(O)CCI` [3-iodopropionic acid]: 82 °C.
Next, `C(O)[C@@H](O)[C@@H](O)[C@H](O)CO` [D-arabitol]: 102 °C; `O=C(OC[C@H]1O[C@](O)(COC(=O)c2cccnc2)[C@@H](OC(=O)c2cccnc2)[C@@H]1OC(=O)c1cccnc1)c1cccnc1` [nicofuranose]: 135 °C.
The compound `COc1cc(C(C)=O)ccc1F` [4'-fluoro-3'-methoxyacetophenone] registered a melting point of 52 °C.
As for `CC(=O)[C@H]1CC[C@H]2[C@@H]3CCC4=CC(=O)CC[C@]4(C)[C@H]3CC[C@]12C` [Progesterone], the figure is 121 °C.

One may read the melting point as the temperature, or range, at which the solid turns liquid.
